Blank lines part the entries; values can stand above or below the compound they belong to.
Legend:
Assay in all cases: Caliper, Mobility shift assay off-chip
RPS6KA4 KD1 KD2 (human) = RPS6KA4 KD1 KD2 (human) (UniProt O75676)
RPS6KA3 KD1 KD2 (human) = RPS6KA3 KD1 KD2 (human) (UniProt P51812)
SPHK1 (human) = SPHK1 (human) (UniProt Q9NYA1)
ERBB2 (human) = ERBB2 (human) (UniProt P04626)
MAPKAPK3 (human) = MAPKAPK3 (human) (UniProt Q16644)
PRKD1 (human) = PRKD1 (human) (UniProt Q15139)
CDC7 (human) = CDC7 (human) (UniProt O00311)
FLT1 (human) = FLT1 (human) (UniProt P17948)
TNK1 (human) = TNK1 (human) (UniProt Q13470)
FGR (human) = FGR (human) (UniProt P09769)
MAPKAPK5 (human) = MAPKAPK5 (human) (UniProt Q8IW41)
Chain of MAPKAPK5 (human) (Q8IW41 whole entry, looked up): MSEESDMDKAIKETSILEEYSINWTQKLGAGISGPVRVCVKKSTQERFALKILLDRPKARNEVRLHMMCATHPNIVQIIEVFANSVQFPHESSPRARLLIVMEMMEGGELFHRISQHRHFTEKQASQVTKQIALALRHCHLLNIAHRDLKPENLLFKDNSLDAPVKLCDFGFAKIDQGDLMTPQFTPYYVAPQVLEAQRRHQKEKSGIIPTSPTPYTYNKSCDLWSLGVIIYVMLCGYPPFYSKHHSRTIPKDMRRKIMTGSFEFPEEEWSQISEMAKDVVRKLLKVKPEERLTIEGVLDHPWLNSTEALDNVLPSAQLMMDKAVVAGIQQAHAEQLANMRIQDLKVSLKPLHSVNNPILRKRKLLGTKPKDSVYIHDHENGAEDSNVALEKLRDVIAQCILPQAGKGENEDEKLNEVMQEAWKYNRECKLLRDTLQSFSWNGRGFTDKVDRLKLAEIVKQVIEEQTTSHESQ

FGFR2 (human) = FGFR2 (human) (UniProt P21802)
RPS6KA5 KD1 KD2 (human) = RPS6KA5 KD1 KD2 (human) (UniProt O75582)
RPS6KA6 KD1 KD2 (human) = RPS6KA6 KD1 KD2 (human) (UniProt Q9UK32)
MARK4 (human) = MARK4 (human) (UniProt Q96L34)
PRKCI (human) = PRKCI (human) (UniProt P41743)
SRC (human) = SRC (human) (UniProt P12931)
Chain of SRC (human) (P12931 whole entry, looked up): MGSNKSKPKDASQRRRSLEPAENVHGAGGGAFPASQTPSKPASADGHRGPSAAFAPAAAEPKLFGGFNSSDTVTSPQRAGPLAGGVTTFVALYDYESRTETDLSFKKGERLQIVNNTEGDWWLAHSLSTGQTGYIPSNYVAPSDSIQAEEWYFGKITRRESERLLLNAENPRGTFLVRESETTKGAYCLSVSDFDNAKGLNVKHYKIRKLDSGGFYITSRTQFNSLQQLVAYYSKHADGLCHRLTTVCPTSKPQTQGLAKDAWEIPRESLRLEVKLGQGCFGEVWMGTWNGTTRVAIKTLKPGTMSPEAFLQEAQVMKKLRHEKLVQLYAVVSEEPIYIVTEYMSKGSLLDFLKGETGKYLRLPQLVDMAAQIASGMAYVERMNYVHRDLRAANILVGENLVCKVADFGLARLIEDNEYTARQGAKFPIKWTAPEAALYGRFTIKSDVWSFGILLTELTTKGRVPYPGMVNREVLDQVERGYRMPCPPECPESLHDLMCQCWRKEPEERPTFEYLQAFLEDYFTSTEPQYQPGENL

STK38L (human) = STK38L (human) (UniProt Q9Y2H1)
EPHA6 (human) = EPHA6 (human) (UniProt Q9UF33)
Chain of EPHA6 (human) (Q9UF33 whole entry, looked up): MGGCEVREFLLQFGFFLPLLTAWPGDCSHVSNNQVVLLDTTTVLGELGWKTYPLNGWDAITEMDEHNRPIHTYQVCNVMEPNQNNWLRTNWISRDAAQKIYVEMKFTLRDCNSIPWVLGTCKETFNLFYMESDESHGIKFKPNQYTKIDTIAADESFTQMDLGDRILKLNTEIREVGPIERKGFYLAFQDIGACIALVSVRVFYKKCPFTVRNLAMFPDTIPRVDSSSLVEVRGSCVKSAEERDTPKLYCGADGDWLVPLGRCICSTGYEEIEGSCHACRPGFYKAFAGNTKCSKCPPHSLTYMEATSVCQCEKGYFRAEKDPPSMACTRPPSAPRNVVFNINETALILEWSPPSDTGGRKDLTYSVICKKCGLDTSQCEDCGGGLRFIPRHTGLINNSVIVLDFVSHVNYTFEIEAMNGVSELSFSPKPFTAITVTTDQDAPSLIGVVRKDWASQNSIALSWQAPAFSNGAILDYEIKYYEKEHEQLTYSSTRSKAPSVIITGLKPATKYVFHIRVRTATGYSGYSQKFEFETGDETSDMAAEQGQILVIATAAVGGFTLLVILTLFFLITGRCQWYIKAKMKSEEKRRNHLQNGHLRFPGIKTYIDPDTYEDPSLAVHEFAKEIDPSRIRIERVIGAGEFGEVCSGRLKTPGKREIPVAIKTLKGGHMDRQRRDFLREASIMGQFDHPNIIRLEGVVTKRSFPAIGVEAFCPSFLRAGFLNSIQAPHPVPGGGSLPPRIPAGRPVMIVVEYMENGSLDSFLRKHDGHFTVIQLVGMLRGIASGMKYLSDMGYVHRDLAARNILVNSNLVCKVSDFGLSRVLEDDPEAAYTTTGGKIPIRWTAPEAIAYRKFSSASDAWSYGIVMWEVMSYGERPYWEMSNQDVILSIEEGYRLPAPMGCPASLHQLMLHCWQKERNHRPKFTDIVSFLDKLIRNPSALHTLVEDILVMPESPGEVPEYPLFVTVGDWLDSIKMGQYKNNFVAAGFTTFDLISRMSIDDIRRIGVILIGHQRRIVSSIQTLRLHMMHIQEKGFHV

PDGFRB (human) = PDGFRB (human) (UniProt P09619)
SGK1 (human) = SGK1 (human) (UniProt O00141)
ALK NPM1 (human) = ALK NPM1 (human) (UniProt P06748+Q9UM73)
EPHA3 (human) = EPHA3 (human) (UniProt P29320)
NTRK1 (human) = NTRK1 (human) (UniProt P04629)
AKT1 (human) = AKT1 (human) (UniProt P31749)
Chain of AKT1 (human) (P31749 whole entry, looked up): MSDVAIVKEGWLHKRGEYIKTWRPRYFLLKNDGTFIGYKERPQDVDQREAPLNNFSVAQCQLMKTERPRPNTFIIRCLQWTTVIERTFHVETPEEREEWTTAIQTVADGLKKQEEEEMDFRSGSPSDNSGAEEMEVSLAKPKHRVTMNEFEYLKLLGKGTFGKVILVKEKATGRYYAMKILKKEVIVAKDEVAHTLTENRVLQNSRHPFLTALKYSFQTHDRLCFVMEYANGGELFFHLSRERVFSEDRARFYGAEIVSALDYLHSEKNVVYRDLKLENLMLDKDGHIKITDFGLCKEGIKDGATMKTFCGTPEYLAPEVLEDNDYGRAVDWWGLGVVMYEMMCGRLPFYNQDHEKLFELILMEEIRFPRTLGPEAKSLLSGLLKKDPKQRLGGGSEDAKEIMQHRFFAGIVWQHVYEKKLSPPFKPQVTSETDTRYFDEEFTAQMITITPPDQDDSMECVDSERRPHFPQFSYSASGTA

HIPK1 (human) = HIPK1 (human) (UniProt Q86Z02)
TYK2 JH1 JH2 (human) = TYK2 JH1 JH2 (human) (UniProt P29597)
PHKG2 (human) = PHKG2 (human) (UniProt P15735)
PRKACA (human) = PRKACA (human) (UniProt P17612)
GSK3A (human) = GSK3A (human) (UniProt P49840)
Chain of GSK3A (human) (P49840 whole entry, looked up): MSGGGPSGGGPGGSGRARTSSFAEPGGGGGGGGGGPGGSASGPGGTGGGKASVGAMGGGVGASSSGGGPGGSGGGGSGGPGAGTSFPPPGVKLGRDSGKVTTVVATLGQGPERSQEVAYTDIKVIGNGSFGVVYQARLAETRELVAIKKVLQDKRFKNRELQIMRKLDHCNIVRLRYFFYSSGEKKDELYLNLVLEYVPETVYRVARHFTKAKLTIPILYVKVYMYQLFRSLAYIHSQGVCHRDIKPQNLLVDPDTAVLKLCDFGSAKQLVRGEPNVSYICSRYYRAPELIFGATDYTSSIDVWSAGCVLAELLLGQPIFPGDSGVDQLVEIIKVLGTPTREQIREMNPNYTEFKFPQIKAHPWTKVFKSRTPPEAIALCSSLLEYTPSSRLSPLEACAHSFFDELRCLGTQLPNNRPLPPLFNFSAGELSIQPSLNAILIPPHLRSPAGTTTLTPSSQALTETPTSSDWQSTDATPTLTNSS

EPHA7 (human) = EPHA7 (human) (UniProt Q15375)
Chain of EPHA7 (human) (Q15375 whole entry, looked up): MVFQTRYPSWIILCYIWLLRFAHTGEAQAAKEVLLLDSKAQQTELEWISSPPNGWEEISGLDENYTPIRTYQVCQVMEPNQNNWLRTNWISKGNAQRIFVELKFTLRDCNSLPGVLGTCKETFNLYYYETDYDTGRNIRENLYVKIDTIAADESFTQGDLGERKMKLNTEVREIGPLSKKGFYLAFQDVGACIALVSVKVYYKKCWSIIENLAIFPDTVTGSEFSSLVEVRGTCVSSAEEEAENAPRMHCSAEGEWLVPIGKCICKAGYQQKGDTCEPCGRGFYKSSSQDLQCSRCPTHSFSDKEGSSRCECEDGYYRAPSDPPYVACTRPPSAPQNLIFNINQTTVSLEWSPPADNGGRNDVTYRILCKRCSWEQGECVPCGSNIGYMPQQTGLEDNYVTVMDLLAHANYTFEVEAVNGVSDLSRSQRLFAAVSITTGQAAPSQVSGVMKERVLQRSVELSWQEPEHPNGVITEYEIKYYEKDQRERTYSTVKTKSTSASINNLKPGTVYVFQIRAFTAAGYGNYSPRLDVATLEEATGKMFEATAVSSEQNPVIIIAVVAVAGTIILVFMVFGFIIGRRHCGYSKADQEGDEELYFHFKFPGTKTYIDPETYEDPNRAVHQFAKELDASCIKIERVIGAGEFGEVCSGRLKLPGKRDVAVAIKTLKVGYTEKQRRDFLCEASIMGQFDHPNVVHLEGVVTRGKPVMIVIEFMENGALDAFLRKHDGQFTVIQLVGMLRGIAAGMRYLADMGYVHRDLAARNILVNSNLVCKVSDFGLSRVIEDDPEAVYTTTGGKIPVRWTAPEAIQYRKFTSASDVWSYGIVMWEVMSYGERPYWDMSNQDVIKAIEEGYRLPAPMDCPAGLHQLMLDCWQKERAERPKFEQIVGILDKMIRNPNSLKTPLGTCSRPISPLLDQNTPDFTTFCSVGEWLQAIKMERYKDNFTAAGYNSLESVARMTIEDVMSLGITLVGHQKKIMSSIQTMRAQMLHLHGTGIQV

EPHA1 (human) = EPHA1 (human) (UniProt P21709)
Chain of EPHA1 (human) (P21709 whole entry, looked up): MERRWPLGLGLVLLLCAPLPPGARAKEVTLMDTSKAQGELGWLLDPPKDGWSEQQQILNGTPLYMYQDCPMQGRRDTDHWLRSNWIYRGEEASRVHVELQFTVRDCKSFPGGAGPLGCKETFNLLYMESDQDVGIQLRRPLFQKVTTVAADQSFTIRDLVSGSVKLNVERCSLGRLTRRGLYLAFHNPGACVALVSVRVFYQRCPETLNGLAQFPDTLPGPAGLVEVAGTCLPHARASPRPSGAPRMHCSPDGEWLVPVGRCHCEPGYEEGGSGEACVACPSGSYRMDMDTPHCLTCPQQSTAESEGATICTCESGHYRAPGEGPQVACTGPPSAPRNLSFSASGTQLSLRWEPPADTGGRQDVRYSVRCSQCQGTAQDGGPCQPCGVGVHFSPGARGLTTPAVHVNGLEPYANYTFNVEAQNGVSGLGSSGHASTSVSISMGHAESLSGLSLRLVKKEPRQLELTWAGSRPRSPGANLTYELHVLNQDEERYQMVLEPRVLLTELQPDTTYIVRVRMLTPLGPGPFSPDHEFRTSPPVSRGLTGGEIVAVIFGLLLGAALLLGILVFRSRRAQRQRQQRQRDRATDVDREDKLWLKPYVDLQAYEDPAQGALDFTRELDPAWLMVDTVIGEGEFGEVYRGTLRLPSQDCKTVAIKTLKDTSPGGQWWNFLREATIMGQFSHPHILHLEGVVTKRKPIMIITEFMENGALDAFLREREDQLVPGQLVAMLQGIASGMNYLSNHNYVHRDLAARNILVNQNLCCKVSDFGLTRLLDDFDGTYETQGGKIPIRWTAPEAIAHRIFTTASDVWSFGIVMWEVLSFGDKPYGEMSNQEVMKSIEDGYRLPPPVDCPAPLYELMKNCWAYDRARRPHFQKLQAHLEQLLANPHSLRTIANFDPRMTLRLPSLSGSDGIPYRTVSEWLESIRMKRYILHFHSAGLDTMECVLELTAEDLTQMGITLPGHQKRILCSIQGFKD

FES (human) = FES (human) (UniProt P07332)
MAPK10 (human) = MAPK10 (human) (UniProt P53779)

inhibition (RPS6KA4 KD1 KD2 (human); compound 0.02 µM): -2.4%
inhibition (RPS6KA4 KD1 KD2 (human); compound 0.2 µM): 3.7%
inhibition (RPS6KA3 KD1 KD2 (human); compound 0.02 µM): 0.7%
inhibition (RPS6KA3 KD1 KD2 (human); compound 0.2 µM): 3.1%
inhibition (SPHK1 (human); compound 0.02 µM): -4.8%
inhibition (SPHK1 (human); compound 0.2 µM): -5.9%
inhibition (ERBB2 (human); compound 0.02 µM): 0%
inhibition (ERBB2 (human); compound 0.2 µM): -1.5%
inhibition (MAPKAPK3 (human); compound 0.02 µM): 2.3%
inhibition (MAPKAPK3 (human); compound 0.2 µM): 1.6%
inhibition (PRKD1 (human); compound 0.02 µM): -1.1%
inhibition (PRKD1 (human); compound 0.2 µM): -0.8%
inhibition (CDC7 (human); compound 0.02 µM): -1.5%
inhibition (CDC7 (human); compound 0.2 µM): -3.3%
inhibition (FLT1 (human); compound 0.02 µM): 66.5%
inhibition (FLT1 (human); compound 0.2 µM): 99.8%
inhibition (TNK1 (human); compound 0.02 µM): 1.8%
inhibition (TNK1 (human); compound 0.2 µM): 12.2%
inhibition (FGR (human); compound 0.02 µM): 18.8%
inhibition (FGR (human); compound 0.2 µM): 54.2%
inhibition (MAPKAPK5 (human); compound 0.02 µM): 3.2%
inhibition (MAPKAPK5 (human); compound 0.2 µM): 4.8%
inhibition (FGFR2 (human); compound 0.02 µM): 29%
inhibition (FGFR2 (human); compound 0.2 µM): 82.6%
inhibition (RPS6KA5 KD1 KD2 (human); compound 0.02 µM): -4.7%
inhibition (RPS6KA6 KD1 KD2 (human); compound 0.02 µM): 1.2%
inhibition (RPS6KA6 KD1 KD2 (human); compound 0.2 µM): 1.7%
inhibition (MARK4 (human); compound 0.02 µM): -4.1%
inhibition (MARK4 (human); compound 0.2 µM): -6.3%
inhibition (PRKCI (human); compound 0.02 µM): 3.4%
inhibition (PRKCI (human); compound 0.2 µM): 2.1%
inhibition (SRC (human); compound 0.02 µM): 8.4%
inhibition (SRC (human); compound 0.2 µM): 42.7%
inhibition (STK38L (human); compound 0.02 µM): -1.5%
inhibition (STK38L (human); compound 0.2 µM): 6.6%
inhibition (EPHA6 (human); compound 0.02 µM): 3.8%
inhibition (EPHA6 (human); compound 0.2 µM): 22.3%
inhibition (PDGFRB (human); compound 0.02 µM): 36.7%
inhibition (PDGFRB (human); compound 0.2 µM): 81.4%
inhibition (SGK1 (human); compound 0.02 µM): -0.7%
inhibition (SGK1 (human); compound 0.2 µM): -4.1%
inhibition (ALK NPM1 (human); compound 0.02 µM): 2.8%
inhibition (ALK NPM1 (human); compound 0.2 µM): 2.1%
inhibition (EPHA3 (human); compound 0.02 µM): -4.8%
inhibition (EPHA3 (human); compound 0.2 µM): -4.4%
inhibition (NTRK1 (human); compound 0.02 µM): 7%
inhibition (NTRK1 (human); compound 0.2 µM): 16.7%
inhibition (AKT1 (human); compound 0.02 µM): -2.3%
inhibition (AKT1 (human); compound 0.2 µM): -2.2%
inhibition (HIPK1 (human); compound 0.02 µM): 2.6%
inhibition (HIPK1 (human); compound 0.2 µM): 7.3%
inhibition (TYK2 JH1 JH2 (human); compound 0.02 µM): 3.7%
inhibition (TYK2 JH1 JH2 (human); compound 0.2 µM): 7.2%
inhibition (PHKG2 (human); compound 0.02 µM): -3.5%
inhibition (PHKG2 (human); compound 0.2 µM): -1.8%
inhibition (PRKACA (human); compound 0.02 µM): -6.3%
inhibition (PRKACA (human); compound 0.2 µM): -5%
inhibition (GSK3A (human); compound 0.02 µM): 1.8%
inhibition (GSK3A (human); compound 0.2 µM): 5.1%
inhibition (EPHA7 (human); compound 0.02 µM): 0.1%
inhibition (EPHA7 (human); compound 0.2 µM): 1.7%
inhibition (EPHA1 (human); compound 0.02 µM): -1.3%
inhibition (EPHA1 (human); compound 0.2 µM): 15.3%
Structure (SMILES): Cc1ccc(Nc2nccc(N(C)c3ccc4c(C)n(C)nc4c3)n2)cc1S(N)(=O)=O

inhibition (RPS6KA4 KD1 KD2 (human); compound 0.001 µM): -7.2%
inhibition (RPS6KA4 KD1 KD2 (human); compound 0.02 µM): -1.1%
inhibition (SPHK1 (human); compound 0.001 µM): -4.8%
inhibition (SPHK1 (human); compound 0.02 µM): -4.1%
inhibition (ERBB2 (human); compound 0.001 µM): -1.2%
inhibition (ERBB2 (human); compound 0.02 µM): -1.4%
inhibition (MAPKAPK3 (human); compound 0.001 µM): -0.7%
inhibition (MAPKAPK3 (human); compound 0.02 µM): -5.2%
inhibition (PRKD1 (human); compound 0.001 µM): -2.7%
inhibition (PRKD1 (human); compound 0.02 µM): -2.2%
inhibition (CDC7 (human); compound 0.001 µM): -4.9%
inhibition (CDC7 (human); compound 0.02 µM): -5.8%
inhibition (FLT1 (human); compound 0.001 µM): 25.3%
inhibition (FLT1 (human); compound 0.02 µM): 99.3%
inhibition (TNK1 (human); compound 0.001 µM): 26.9%
inhibition (TNK1 (human); compound 0.02 µM): 24.8%
inhibition (FGR (human); compound 0.001 µM): 8.2%
inhibition (FGR (human); compound 0.02 µM): 25%
inhibition (MAPKAPK5 (human); compound 0.001 µM): -1.5%
inhibition (MAPKAPK5 (human); compound 0.02 µM): 1.6%
inhibition (FGFR2 (human); compound 0.001 µM): 10.6%
inhibition (FGFR2 (human); compound 0.02 µM): 54.1%
inhibition (FES (human); compound 0.001 µM): 2.9%
inhibition (FES (human); compound 0.02 µM): 1.5%
inhibition (RPS6KA5 KD1 KD2 (human); compound 0.001 µM): -6.2%
inhibition (RPS6KA5 KD1 KD2 (human); compound 0.02 µM): -7.1%
inhibition (RPS6KA6 KD1 KD2 (human); compound 0.001 µM): -7%
inhibition (RPS6KA6 KD1 KD2 (human); compound 0.02 µM): -0.1%
inhibition (MARK4 (human); compound 0.001 µM): -14.2%
inhibition (MARK4 (human); compound 0.02 µM): -4.7%
inhibition (PRKCI (human); compound 0.001 µM): 3%
inhibition (PRKCI (human); compound 0.02 µM): 3.9%
inhibition (SRC (human); compound 0.001 µM): 1.3%
inhibition (SRC (human); compound 0.02 µM): -0.2%
inhibition (STK38L (human); compound 0.001 µM): 8.1%
inhibition (STK38L (human); compound 0.02 µM): -0.1%
inhibition (EPHA6 (human); compound 0.02 µM): 0.3%
inhibition (SGK1 (human); compound 0.001 µM): 11.3%
inhibition (SGK1 (human); compound 0.02 µM): -1.8%
inhibition (ALK NPM1 (human); compound 0.001 µM): 1.1%
inhibition (ALK NPM1 (human); compound 0.02 µM): -0.3%
inhibition (EPHA3 (human); compound 0.001 µM): -7.7%
inhibition (EPHA3 (human); compound 0.02 µM): -4.2%
inhibition (NTRK1 (human); compound 0.001 µM): 2.9%
inhibition (NTRK1 (human); compound 0.02 µM): 21.6%
inhibition (AKT1 (human); compound 0.001 µM): -4.4%
inhibition (AKT1 (human); compound 0.02 µM): -4.8%
inhibition (HIPK1 (human); compound 0.001 µM): -4.9%
inhibition (HIPK1 (human); compound 0.02 µM): -0.2%
inhibition (TYK2 JH1 JH2 (human); compound 0.001 µM): 3.7%
inhibition (TYK2 JH1 JH2 (human); compound 0.02 µM): 1.6%
inhibition (PHKG2 (human); compound 0.001 µM): -6.2%
inhibition (PHKG2 (human); compound 0.02 µM): -3.3%
inhibition (MAPK10 (human); compound 0.001 µM): -5%
inhibition (MAPK10 (human); compound 0.02 µM): -4.4%
inhibition (PRKACA (human); compound 0.001 µM): -7.9%
inhibition (PRKACA (human); compound 0.02 µM): -10.1%
inhibition (GSK3A (human); compound 0.001 µM): 2.4%
inhibition (GSK3A (human); compound 0.02 µM): 0.2%
inhibition (EPHA7 (human); compound 0.001 µM): -3.2%
inhibition (EPHA7 (human); compound 0.02 µM): -0.8%
inhibition (EPHA1 (human); compound 0.001 µM): -5.6%
inhibition (EPHA1 (human); compound 0.02 µM): -4.2%
Structure (SMILES): CNC(=O)c1ccccc1Sc1ccc2c(/C=C/c3ccccn3)n[nH]c2c1

— the kinase profiling compilation of Christmann-Franck et al. (2016)
